Common to all, as to experiment: growth of human tumour cells (NCI), 48 h
The test system of assay [1] is HCC-2998 colon.
Assay [2] has as its system EKVX NSCLC.
Assay [3] relates to MOLT-4 leukemia.
For assay [4], the system named is SNB-75 CNS.
Assay [5] concerns TK-10 renal.
The test system of assay [6] is HOP-92 NSCLC.
The test system of assay [7] is SK-MEL-2 melanoma.
The test system of assay [8] is ACHN renal.
Assay [9] relates to UO-31 renal.
Assay [10] relates to SW-620 colon.

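How tested: cells in 96-well plates exposed to compound for 48 hours at five concentrations. GI50 = concentration required for 50% inhibition of growth. TGI: concentration producing complete growth inhibition.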 A value given as a limit tells only on which side of the number the result lay.

On to `CC[n+]1ccc2c(c1)C(=O)c1nccc3c1c-2nc1ccccc13`, for which the GI50 in [1] is 1.05 µM; in assay [2], 3.53 µM; in assay [3] it was 1.27 µM; in [4] it was 0.678 µM; in assay [5], 4.77 µM; in assay [6] it was 1.45 µM. The GI50 in [7] was 1.35 µM; in assay [8] it was 1.13 µM; in assay [9], 0.948 µM; in [10] it was 1.1 µM. The TGI in assay [1] was 4.97 µM; in assay [2] it was 8.92 µM; in assay [3] it was 7.31 µM; in [4], 2.56 µM; in assay [5], 16.8 µM; in assay [6], 7.02 µM. The TGI in [7] is 6.08 µM; in assay [8] it was more than 15.5 µM; in assay [9], 8.42 µM; in assay [10], 11.5 µM.

For `COc1ccc(CNC(=O)COc2ccc(/C=N/Nc3nc4ccccc4s3)cc2)cc1`, the GI50 in assay [1] is 5.37 µM; in assay [2], 2.98 µM; in assay [3] it was more than 100 µM; in [4], 1.07 µM; in [5], 3.49 µM; in [6], 1.4 µM. For the same compound, the GI50 in assay [7] is 3.84 µM; in assay [8], 1.67 µM; in assay [10] it was 5.23 µM. Further, the TGI in assay [1] is more than 100 µM; in assay [2], 32.5 µM; in [3], more than 100 µM; in assay [4], 3.29 µM; in [5], 16.3 µM; in [6], 4.41 µM. Also, the TGI in assay [7] is 16 µM; in [8], 3.42 µM; in [10], more than 100 µM.

Take `NNC(=O)c1cnn(-c2ccnc3c(C(F)(F)F)cccc23)c1N`: the GI50 in [1] was more than 100 µM; in [2], more than 100 µM; in [3] it was more than 100 µM; in assay [4], 99.7 µM; in assay [5], more than 100 µM; in assay [6], 82.1 µM. Moreover, the GI50 in [7], in assay [8], in assay [9] and in assay [10] was more than 100 µM in each case. In addition, the TGI in assay [1], in assay [2], in assay [3], in assay [4], in assay [5] and in [6] was more than 100 µM throughout. The TGI in assay [7], in assay [8], in assay [9] and in assay [10] was more than 100 µM each time.

For `CC1(C)N=C(N)N=C(N)N1c1ccc(CCCCc2ccc(S(=O)(=O)F)cc2Cl)c(Cl)c1`, the TGI turned out to be 67.1 µM in assay [1]; 161 µM in [2]; 10.6 µM in [3]; 54.7 µM in assay [4]; 231 µM in [5]; 48.6 µM in assay [6]. Further, the TGI in assay [7] was found to be 20.3 µM; in [8], 142 µM; in [9], 224 µM; in [10], 360 µM.

Turning to `COc1cccc(-c2nn(-c3ccccc3)cc2-c2ccnc(NCCCNS(=O)(=O)c3cccc(F)c3)c2)c1`, the GI50 was 3.92 µM in assay [1]; 2.79 µM in assay [2]; 2.64 µM in assay [3]; 4.57 µM in [4]; 5.32 µM in assay [5]; 2.42 µM in assay [6]. Besides, the GI50 in assay [7] was 2.59 µM; in assay [8], 3.56 µM; in assay [9], 1.87 µM; in [10] it was 5.54 µM. The TGI in assay [1] was more than 100 µM; in assay [2], more than 100 µM; in [3] it was 8 µM; in assay [4], more than 100 µM; in assay [5], more than 100 µM; in [6], 9.63 µM. Besides, the TGI in assay [7] is 8.32 µM; in assay [8], more than 100 µM; in assay [9], more than 100 µM; in assay [10], more than 100 µM.

Consider `CC1=C(CCCOC(=O)NCCCl)C2=C(C)C3(CC3)[C@@](C)(O)C(=O)C2=C1`, for which the GI50 in assay [1] is 2.35 µM; in assay [2], 3.45 µM; in assay [3], 5.49 µM; in assay [4] it was 1.75 µM; in assay [5], 3.55 µM; in [6], 2.87 µM. Also, the GI50 in assay [7] was 2.31 µM; in assay [9], 2.02 µM; in [10], 24.5 µM. In addition, the TGI was 7.24 µM in [1]; more than 100 µM in [2]; more than 100 µM in assay [3]; 3.84 µM in assay [4]; more than 100 µM in assay [5]; 8.24 µM in assay [6]. Besides, the TGI was 4.96 µM in assay [7], 5.76 µM in assay [9] and more than 100 µM in assay [10].

`CN(C)c1ccc2c(c1)oc(=O)c1ccccc12`: the TGI in assay [1] is 28.8 µM; in assay [2] it was 52.3 µM; in assay [3] it was 73.3 µM; in assay [4], 31.9 µM; in assay [5], 40 µM; in assay [6], 30 µM. The results for the TGI in assay [7], in assay [8] and in assay [10] were 23.2 µM, 44.6 µM and 23.4 µM, respectively.

As for `CN(C)S(=O)(=O)Nc1ccccn1`, the TGI in [1], in assay [2], in [4], in [5], in assay [6] and in [7] was more than 100 µM throughout. Further, the TGI in [8], in assay [9] and in [10] was more than 100 µM throughout.

`C#CC(C)(C)Oc1cc(O)c2c(=O)c3ccccc3n(C)c2c1`: the TGI in [1], in assay [2], in assay [3], in [4], in assay [5] and in assay [6] was more than 100 µM each time. In addition, the TGI in assay [7], in assay [8] and in [9] was more than 100 µM throughout.

`O=[N+]([O-])c1ccc(NSc2ccccc2)cc1`: the TGI in assay [1] was more than 100 µM; in [2], 90.1 µM; in [3], 49.4 µM; in assay [5] it was more than 100 µM; in assay [6] it was more than 100 µM; in assay [7], more than 100 µM. In addition, the TGI in assay [8], in [9] and in assay [10] was more than 100 µM throughout.

As to `Fc1ccc(-c2nn(-c3ccccc3)cc2-c2nc3ccccc3o2)cc1`, the GI50 in assay [1] was 7.98 µM; in assay [2], 5.29 µM; in [3], 3.62 µM; in assay [4], 9.89 µM; in assay [6], 0.158 µM; in assay [7], 9 µM. Also, the values for the GI50 in assay [8], in assay [9] and in assay [10] were 4.1 µM, 1.67 µM and 3.12 µM, respectively. For the same compound, the TGI in assay [1] is more than 100 µM; in assay [2] it was 90.6 µM; in assay [3], more than 100 µM; in assay [4] it was 33.4 µM; in assay [6], 4.48 µM; in [7], 28.3 µM. Further, the TGI in [8] is more than 100 µM; in [9] it was 35.1 µM; in assay [10], 36.4 µM.

Turning to `O=C1CC[C@H]2CNC(=O)C[C@H]2C1`, the TGI in assay [1], in assay [2], in assay [3], in assay [4], in assay [5] and in [6] was more than 100 µM each time. Moreover, the TGI in assay [7], in assay [9] and in assay [10] was more than 100 µM throughout.

On to `Cc1cc(C)nc(NS(=O)(=O)c2ccc(NC(=O)c3cccc4c(=O)c5ccccc5[nH]c34)cc2)n1`, for which the TGI in [1] is 31.7 µM; in [2], 86.3 µM; in assay [3], more than 100 µM; in assay [4], 50 µM; in [5], 51 µM; in assay [6] it was 44 µM. For the same compound, the TGI in [8] turned out to be 49.2 µM; in [9], 45.7 µM; in assay [10] it was 55.5 µM.

`COC(=O)C(CC(=O)c1cc2c(cc1I)OCO2)Cc1cc(OC)c(OC)c(OC)c1I` (configuration not stated): the TGI in [1], in assay [2], in assay [3], in assay [5], in [6] and in assay [7] was more than 100 µM each time. Moreover, the TGI in assay [8] and in assay [10] was more than 100 µM throughout.

Take `COC(=O)[C@@H](C)C[C@H](Cc1ccccc1)NC(=O)c1nc([C@@H](C[C@H](C(C)C)N(C)C(=O)[C@@H](NC(=O)[C@H]2CCCN2C)C(C)C)OC(C)=O)sc1C`: the GI50 in assay [1] was less than 0.0025 µM; in assay [2] it was 0.0106 µM; in assay [3] it was 0.00278 µM; in assay [4], less than 0.0025 µM; in assay [5] it was more than 25 µM; in [6] it was 7.33 µM. The GI50 in assay [7] is less than 0.0025 µM; in assay [9], 0.0154 µM; in [10], less than 0.0025 µM. Further, the TGI in assay [1], in assay [2], in [3], in assay [4], in [5] and in [6] was more than 25 µM in each case. In addition, the TGI in assay [7], in assay [9] and in assay [10] was more than 25 µM each time.

For the compound `COc1ccc(/C=C(/C(=O)O)c2cc(OC)c(OC)c(OC)c2)cc1`, the TGI in assay [1] was more than 100 µM; in assay [2] it was more than 100 µM; in assay [3], more than 100 µM; in [4] it was 79 µM; in assay [6], more than 100 µM; in assay [7], more than 100 µM. Besides, the TGI in assay [8], in assay [9] and in assay [10] was more than 100 µM each time.

`Cc1c(N2C(=O)/C(=C\c3ccccc3O)N=C2c2ccccc2)c(=O)n(-c2ccccc2)n1C`: the GI50 in [1] is more than 100 µM; in assay [2], 77 µM; in [4], 15.7 µM; in assay [5], 33.4 µM; in [6], 17.6 µM; in assay [7], more than 100 µM. In addition, the GI50 in assay [8] was 53.8 µM; in assay [9], more than 100 µM; in [10] it was more than 100 µM. For the same compound, the TGI was more than 100 µM in [1]; more than 100 µM in [2]; 40.3 µM in assay [4]; more than 100 µM in assay [5]; 68.4 µM in [6]; more than 100 µM in assay [7]. The TGI in assay [8], in [9] and in [10] was more than 100 µM throughout.

As to `O=C1Oc2cc3c(c4cccc1c24)OCN(c1ccc(Cl)cc1)C3`, the TGI is more than 100 µM in assay [1]; more than 100 µM in assay [2]; 51.4 µM in assay [3]; more than 100 µM in assay [4]; more than 100 µM in assay [5]; 49.1 µM in [6]. In addition, the TGI in [8] was more than 100 µM; in assay [9], 32.2 µM; in assay [10], more than 55.3 µM.

For the compound `CC(C)(C)C1=NC(S)NC(CCC(=O)Nc2ccccc2[N+](=O)[O-])=C1` (configuration not stated), the TGI in assay [1], in [2], in assay [3], in assay [5], in [6] and in assay [7] was more than 100 µM each time. Moreover, the TGI in assay [8], in [9] and in assay [10] was more than 100 µM in each case.

Turning to `S=C1NCCN1C1=Nc2ccccc2CO1`, the GI50 in assay [1] is more than 100 µM; in assay [2], 93.6 µM; in assay [3], more than 100 µM; in assay [4], 22.5 µM; in assay [5], more than 100 µM; in assay [6], more than 100 µM. Moreover, the GI50 in assay [8], in [9] and in assay [10] was more than 100 µM throughout. In addition, the TGI in [1], in [2], in [3], in assay [4], in assay [5] and in assay [6] was more than 100 µM in each case. In addition, the TGI in [8], in [9] and in assay [10] was more than 100 µM throughout.

Source of the values: PubChem BioAssay (NCI).
